pEC50: −log10 of the molar value. “And” between values parts separate entries of the source, which are not always exact repeats. Equal entries are not always repeated.

The target in the assay is human mGluR5A (Homo sapiens, UniProt P41594). The assay is described as follows: mGluR5 FLIPR Assay. In kind it is cell-based. The conditions noted are these: positive modulator activity; HEK293 (ZF) cells with human mGluR5A and rat GLAST; Ca++ response to ~EC10 glutamate.
human mGluR5A, sequence (P41594 21-1180 isoform P41594-2): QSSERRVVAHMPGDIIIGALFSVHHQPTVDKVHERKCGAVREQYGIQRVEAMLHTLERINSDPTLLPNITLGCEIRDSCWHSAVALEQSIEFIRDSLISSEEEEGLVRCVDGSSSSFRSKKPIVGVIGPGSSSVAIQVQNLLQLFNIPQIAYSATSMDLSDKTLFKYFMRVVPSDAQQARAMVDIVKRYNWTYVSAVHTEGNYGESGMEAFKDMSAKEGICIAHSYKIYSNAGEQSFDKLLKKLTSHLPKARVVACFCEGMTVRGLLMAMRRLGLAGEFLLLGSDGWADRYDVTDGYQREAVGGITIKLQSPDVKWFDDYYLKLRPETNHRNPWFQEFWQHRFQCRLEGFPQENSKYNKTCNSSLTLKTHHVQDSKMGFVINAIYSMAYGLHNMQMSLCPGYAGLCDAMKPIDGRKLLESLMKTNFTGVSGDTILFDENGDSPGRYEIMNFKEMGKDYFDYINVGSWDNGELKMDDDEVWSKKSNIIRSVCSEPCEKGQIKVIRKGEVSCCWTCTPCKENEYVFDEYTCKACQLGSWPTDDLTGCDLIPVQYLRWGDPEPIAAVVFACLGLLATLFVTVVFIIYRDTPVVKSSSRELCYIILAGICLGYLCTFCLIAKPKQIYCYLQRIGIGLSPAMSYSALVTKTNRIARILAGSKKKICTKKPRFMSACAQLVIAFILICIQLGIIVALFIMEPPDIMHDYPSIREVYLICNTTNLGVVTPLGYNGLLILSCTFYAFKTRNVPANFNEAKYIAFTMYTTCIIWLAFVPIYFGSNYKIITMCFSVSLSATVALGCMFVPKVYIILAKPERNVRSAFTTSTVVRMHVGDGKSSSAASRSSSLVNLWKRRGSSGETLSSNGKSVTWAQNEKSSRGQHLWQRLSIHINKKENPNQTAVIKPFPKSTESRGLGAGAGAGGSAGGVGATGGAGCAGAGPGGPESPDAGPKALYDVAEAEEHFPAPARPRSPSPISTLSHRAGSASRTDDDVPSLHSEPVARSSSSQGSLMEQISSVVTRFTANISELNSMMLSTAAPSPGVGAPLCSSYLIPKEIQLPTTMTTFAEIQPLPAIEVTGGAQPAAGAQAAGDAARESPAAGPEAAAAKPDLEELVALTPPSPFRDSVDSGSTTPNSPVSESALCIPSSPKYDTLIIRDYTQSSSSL
In the case of `O=C1N[C@H](c2cncc(C#Cc3ccncc3)c2)[C@@H](c2ccc(F)cc2)O1` [Example 213], the pEC50 is greater than 7.00.
`O=C1N[C@H](c2cncc(C#Cc3ccnc(F)c3)c2)[C@@H](c2ccc(F)cc2)O1` [Example 214] had a pEC50 greater than 7.00.
For the compound `N#Cc1cccc(C#Cc2cncc([C@H]3NC(=O)O[C@@H]3c3ccc(F)cc3)c2)c1` [Example 215], the pEC50 was greater than 7.00.
In turn, `O=C1N[C@H](c2cncc(C#Cc3cccc(F)n3)c2)[C@@H](c2ccc(F)cc2)O1` [Example 216] gave a pEC50 greater than 7.00.
In turn, `O=C1N[C@H](c2cccc(C#Cc3ccccc3)n2)[C@@H](c2cccc(F)c2)O1` [Example 217] gave a pEC50 greater than 7.00.
The compound `O=C1N[C@@H](c2cccc(C#Cc3ccccc3)n2)[C@H](c2cccc(F)c2)O1` [Example 218] gave a pEC50 of less than 6.00.
As for `C[C@]1(c2cncc(C#Cc3ccccc3)c2)NC(=O)O[C@@H]1c1ccc(F)cc1` [Example 219], the pEC50 is greater than 7.00.
`C[C@@]1(c2cncc(C#Cc3ccccc3)c2)NC(=O)O[C@H]1c1ccc(F)cc1` [Example 220]: the pEC50 was 6.00 to 7.00.
Compound `C[C@@]1(c2cccc(F)c2)OC(=O)N[C@H]1c1cncc(C#Cc2ccccc2)c1` [Example 221] gave a pEC50 of less than 6.00.
Regarding `C[C@]1(c2cccc(F)c2)OC(=O)N[C@@H]1c1cncc(C#Cc2ccccc2)c1` [Example 222], the negative-log EC50 (pEC50) is greater than 7.00.
`C[C@]1(c2cccc(F)c2)OC(=O)N[C@H]1c1cncc(C#Cc2ccccc2)c1` [Example 223] showed a pEC50 of 6.00 to 7.00.
In the case of `C[C@@]1(c2cccc(F)c2)OC(=O)N[C@@H]1c1cncc(C#Cc2ccccc2)c1` [Example 224], the pEC50 was less than 6.00.
Consider `C[C@@]1(c2cncc(C#Cc3ccccc3)c2)NC(=O)O[C@@H]1c1ccccc1` [Example 225], for which the pEC50 is less than 6.00.
To `C[C@]1(c2cncc(C#Cc3ccccc3)c2)NC(=O)O[C@H]1c1ccccc1` [Example 226] belongs greater than 7.00; to `C[C@]1(c2ccccc2)OC(=O)N[C@@H]1c1cncc(C#Cc2ccccc2)c1` [Example 227], greater than 7.00.
Consider `C[C@@]1(c2ccccc2)OC(=O)N[C@@H]1c1cncc(C#Cc2ccccc2)c1` [Example 228], for which the pEC50 was less than 6.00.
With `C[C@]1(c2cncc(C#Cc3ncccc3F)c2)NC(=O)O[C@@H]1c1ccccc1` [Example 229], the pEC50 is greater than 7.00.
Consider `C[C@@]1(c2cncc(C#Cc3ncccc3F)c2)NC(=O)O[C@H]1c1ccccc1` [Example 230], for which the pEC50 was less than 6.00.
To `O=C1N[C@H](c2cccc(C#Cc3ccccc3)c2)[C@@H](c2ccccn2)O1` [Example 231] belongs greater than 7.00.
Turning to `O=C1N[C@@H](c2cccc(C#Cc3ccccc3)c2)[C@H](c2ccccn2)O1` [Example 232], the pEC50 was less than 6.00.
With `O=C1N[C@H](c2cccc(C#Cc3ccccn3)c2)[C@@H](c2ccncc2)O1` [Example 233], the pEC50 was greater than 7.00.
On to `O=C1N[C@H](c2cccc(C#Cc3ccccc3)c2)[C@@H](c2ccncc2)O1` [Example 234], for which the pEC50 is > 7.00 and 8.57.
For `O=C1N[C@H](c2cccc(C#Cc3cccnc3)c2)[C@@H](c2ccncc2)O1` [Example 235], the pEC50 is 6.00 to 7.00 and 6.68.
In the case of `O=C1N[C@@H](c2cccc(C#Cc3cccnc3)c2)[C@H](c2ccncc2)O1` [Example 236], the pEC50 is less than 6.00.
Turning to `O=C1N[C@H](c2cccc(C#Cc3cncc(F)c3)c2)[C@@H](c2cccnc2)O1` [Example 237], the pEC50 was 6.00 to 7.00.
The compound `O=C1N[C@@H](c2cccc(C#Cc3ccccc3)c2)[C@H](c2ccncn2)O1` [Example 238] showed a pEC50 of less than 6.00.
For `O=C1N[C@H](c2cccc(C#Cc3ccccc3)c2)[C@@H](c2ccncn2)O1` [Example 239] the value was greater than 7.00.
With `O=C1N[C@@H](c2cccc(C#Cc3cccnc3)c2)[C@H](c2ccncn2)O1` [Example 240], the pEC50 was less than 6.00.
For `O=C1N[C@H](c2cccc(C#Cc3cccnc3)c2)[C@@H](c2ccncn2)O1` [Example 241], the pEC50 is less than 6.00.
Take `O=C1N[C@@H](c2cccc(C#Cc3ccccc3)c2)[C@H](c2cccnn2)O1` [Example 242]: the pEC50 is less than 6.00.
Consider `O=C1N[C@H](c2cccc(C#Cc3ccccc3)c2)[C@@H](c2cccnn2)O1` [Example 243], for which the pEC50 was 6.00 to 7.00 and 6.57.
As to `O=C1N[C@H](c2cccc(C#Cc3cncc(F)c3)c2)[C@@H](c2ccncn2)O1` [Example 244], the pEC50 was less than 6.00.
The compound `O=C1N[C@@H](c2cccc(C#Cc3ccccc3)c2)[C@H](c2cnccn2)O1` [Example 245] showed a pEC50 of less than 6.00.
`O=C1N[C@H](c2cccc(C#Cc3ccccc3)c2)[C@@H](c2cnccn2)O1` [Example 246] had a pEC50 of less than 6.00.
For `O=C1N[C@H](c2cccc(C#Cc3ccccc3)c2)[C@H](c2cnccn2)O1` [Example 247] the value was less than 6.00.
Regarding `O=C1N[C@@H](c2cccc(C#Cc3cccnc3)c2)[C@H](c2cnccn2)O1` [Example 248], the pEC50 was less than 6.00.
`O=C1N[C@H](c2cccc(C#Cc3cccnc3)c2)[C@@H](c2cnccn2)O1` [Example 249] had a pEC50 of less than 6.00.
`O=C1N[C@@H](c2cccc(C#Cc3cccnc3)c2)[C@@H](c2cnccn2)O1` [Example 250] showed a pEC50 of less than 6.00.
The compound `O=C1N[C@H](c2cccc(C#Cc3cccnc3)c2)[C@H](c2cnccn2)O1` [Example 251] showed a pEC50 of less than 6.00.
For `O=C1N[C@H](c2ccnc(C#Cc3cccc(F)c3)c2)[C@@H](c2cccnc2)O1` [Example 252] the value was less than 6.00.
`O=C1N[C@H](c2ccnc(C#Cc3cncc(F)c3)c2)[C@@H](c2cccnc2)O1` [Example 253] showed a pEC50 of less than 6.00.
`O=C1N[C@H](c2ccnc(C#Cc3ccccc3)c2)[C@@H](c2cccnc2)O1` [Example 254] showed a pEC50 of less than 6.00.
`N#Cc1cccc(C#Cc2cc([C@H]3NC(=O)O[C@@H]3c3cccnc3)ccn2)c1` [Example 255] showed a negative logarithm of the EC50 (pEC50) of less than 6.00.
To `O=C1N[C@H](c2cncc(C#Cc3cncc(F)c3)c2)[C@@H](c2cccc(F)c2)O1` [Example 256] belongs greater than 7.00; to `N#Cc1cncc(C#Cc2cncc([C@H]3NC(=O)O[C@@H]3c3cccc(F)c3)c2)c1` [Example 257], 6.00 to 7.00 and 6.79; to `O=C1N[C@H](c2ccnc(C#Cc3cccnc3)c2)[C@@H](c2cccc(F)c2)O1` [Example 258], greater than 7.00.
`O=C1N[C@H](c2ccnc(C#Cc3ccccc3)c2)[C@@H](c2cccc(F)c2)O1` [Example 259]: the pEC50 is > 7.00 and 8.72.
Consider `COc1cccc([C@H]2OC(=O)N[C@@H]2c2cccc(C#Cc3ccc(SC)cc3)c2)c1` [Example 260], for which the pEC50 is less than 6.00.
Take `COc1cccc([C@H]2OC(=O)N[C@@H]2c2cccc(C#Cc3ccc(C(C)=O)cc3)c2)c1` [Example 261]: the pEC50 is less than 6.00.
As to `COc1cccc([C@H]2OC(=O)N[C@@H]2c2cccc(C#Cc3cccc(Cl)c3)c2)c1` [Example 262], the pEC50 is 6.00 to 7.00.
For `COc1cccc([C@H]2OC(=O)N[C@@H]2c2cccc(C#Cc3ccc(Cl)cc3)c2)c1` [Example 263] the value was less than 6.00; for `COc1cccc([C@H]2OC(=O)N[C@@H]2c2cccc(C#Cc3ccc(C#N)cc3)c2)c1` [Example 264], 6.00 to 7.00; for `COc1cccc([C@H]2OC(=O)N[C@@H]2c2cccc(C#Cc3ccccc3N)c2)c1` [Example 265], 6.00 to 7.00.
